Assay results: patent publication US12605354B2, “Azelaic acid esters in the treatment or prevention of dyslipidemia and associated conditions” (NEW FRONTIER LABS, LLC, priority 2020, dated 2026)
“Also recorded” adds a separate entry of the source. Marks after values point to notes of the source that are not given here.

Tests used:
Assay type in all cases: in vivo, human
[1] = test system: overweight to obese males; assay: 21-day oral DEA study: fasting plasma glucose and OGTT glucose; conditions: for AUC Glucose: 180-minute OGTT, in mg·min/dL (unit assumed); for AUC Glucose / Fasting plasma glucose / Glucose 180 min: D21 post-treatment, 21 daily oral doses of 1 mg/kg, mean; for Glucose 180 min: OGTT
Excerpt: (§1) Seventeen subjects were recruited by sampling a large population at risk for T2D (according to convenience sample; a statistical method of drawing representative data) to measure the changes in glucose, lipid and insulin measurements after an OGTT after the subjects had been treated for 21 days.
(§2) The subjects were overweight to obese males with body mass indices (BMIs) ranging from 27.2 to 43.6 kg/m^2, glycated hemoglobin A1c (HbA1c) of 5.0-6.2% and insulin levels of 8.8-52 μU/mL. The study was conducted by Clinical Trials of Texas, Inc. in San Antonio, TX. The cohort represented a population at risk for the development of T2D. The study was restricted to male participants to control for the variability of insulin sensitivity associated with the menstrual cycle. The subjects received 21 daily oral doses (“q1d”) of 1 mg/kg DEA. An OGTT, in which 75 grams of glucose in a total volume of 300 mL was administered orally to subjects, was performed on Day 0 and again on Day 21 and glucose measurements performed at −30, −5 and 0 min, insulin measurements at −30 and 0 min, and both glucose measurements and insulin measurements at 30, 60, 90, 120 and 180 minutes, where “0 min” is the time at which the glucose solution was administered. The 180-minute time point was selected to gain an early insight into the possible signal of drug action. Blood lipid levels (triglycerides, cholesterol, HDL, non-cholesterol HDL and LDL) were measured before the onset of treatment on Day 0 and again on Day 21. The error of the assays was <5% [36].
(§3) The results of the various marker measurements at Day 0 and Day 21 were compared using both the paired Students T-test and the Wilcoxon signed rank test. The results of both calculations are provided; the p-value from the paired Student T-test first, followed by the p-value from the Wilcoxon signed rank test. Generalized Estimating Equations and bootstrapping were used to verify the results generated with other methods. Fasting glucose was calculated as the average of the −30, −5, and 0-minute measurements and fasting insulin was calculated as the average of the −30- and 0-minute measurements. Spearman's correlation coefficient was calculated for the relationship between A1c and pre-treatment fasting plasma glucose versus post-treatment fasting plasma glucose. Area under the curve (AUC) was calculated over the 180-minute time span of the OGTT. All analyses were performed using the open language engine R 3.4.4. Statistical significance was at the α=0.05 level.
For measuring the effect of DEA on blood glucose, an assessment of fasting plasma glucose levels was relied upon, which is a measure that is commonly used as an indication that a subject may be diabetic. A level under 100 mg/dL is considered clinically normal while the range between 100 and 125 mg/dL is indicative of prediabetes. At the threshold of 100 mg/dL the human body begins to have a compromised insulin response to glucose shock. The OGTT was used, in which a standard dose of glucose was ingested by mouth, and blood samples were taken at specified time points after ingestion. Plasma blood glucose measurements were then obtained as a means of understanding the pharmacodynamic effects of DEA.

[2] = test system: overweight to obese males; assay: 21-day oral DEA study: fasting insulin and OGTT insulin; conditions: for AUC insulin: 180-minute OGTT, in µU·min/mL (unit assumed); for AUC insulin / Fasting insulin: D21 post-treatment, 21 daily oral doses of 1 mg/kg, mean
Excerpt: as §1, §2, §3

[3] = test system: overweight to obese males; assay: 21-day oral DEA study: tolerability, adverse effects
Method: as §2

CCOC(=O)CCCCCCCC(=O)OCC [DEA, diethyl azelate]
average decrease of fasting glucose ([1]; 8 subjects with a fasting glucose≥100 mg/dL, Day 21 vs Day 0, p=0.033, p=0.06): 6.06 mg/dL
AUC Glucose ([1]; All (n = 17), D0 25826): 25356
AUC Glucose ([1]; FPG <100 mg/dL (n = 8), D0 23530): 24475
AUC Glucose ([1]; FPG >100 mg/dL (n = 9), D0 27867): 26138
AUC Glucose ([1]; High A1c (n = 9), D0 27313): 25889
AUC Glucose ([1]; Low A1c (n = 8), D0 24153): 24756
Fasting plasma glucose ([1]; All (n = 17), D0 101.662): 99.732 mg/dL
Fasting plasma glucose ([1]; FPG <100 mg/dL (n = 8), D0 92.769): 97.25 mg/dL
Fasting plasma glucose ([1]; FPG >100 mg/dL (n = 9), D0 109.567, P < 0.01): 101.939** mg/dL
Fasting plasma glucose ([1]; High A1c (n = 9), D0 105.156): 100.261 mg/dL
Fasting plasma glucose ([1]; Low A1c (n = 8), D0 97.731): 99.138 mg/dL
Glucose 180 min ([1]; All (n = 17), D0 100.315): 91.579 mg/dL
Glucose 180 min ([1]; FPG <100 mg/dL (n = 8), D0 89.919): 86.494 mg/dL
Glucose 180 min ([1]; FPG >100 mg/dL (n = 9), D0 109.556): 96.1 mg/dL
Glucose 180 min ([1]; High A1c (n = 9), D0 108.978): 95.128 mg/dL
Glucose 180 min ([1]; Low A1c (n = 8), D0 90.569): 87.588 mg/dL
increase of post-treatment fasting glucose ([1]; entire cohort of 17 subjects, Day 21 vs Day 0, insignificant (p=0.962; p=0.96)): 0.11 mg/dL
average decrease of glucose at 180 minutes ([1]; entire cohort, not significant (p=0.136; 0.057)): 9.14%
decrease in 180 min plasma glucose after treatment ([1]; remaining 16 subjects (subject #1 excluded), p=0.002, 0.003): 13.5%
increase of glucose at 180 minutes ([1]; single outlier (subject #1)): 58.6%
fasting glucose level post-treatment ([1]; subject #1 (A1c 6.2%), decreased from 123.8): 116.3 mg/dL
180 min glucose level post-treatment ([1]; subject #1 (A1c 6.2%), decreased from 200.0): 184.5 mg/dL
180 min glucose level post-treatment ([1]; subject #2 (A1c 6.1%), from 88.3): 69 mg/dL
180 min glucose level post-treatment ([1]; subject #3 (A1c 6.0%), from 146): 119 mg/dL
average decrease of fasting glucose ([1]; subjects with HbA1c≥5.6%, Day 21 vs Day 0, p=0.128, p=0.22): 4.25 mg/dL
median decrease of glucose levels at 180 minutes ([1]; subset of 12 subjects, Day 21): 25.3%
average decrease of glucose levels at 180 minutes ([1]; subset of 12 subjects, Day 21, p<0.001): 21.7%
AUC insulin ([2]; All (n = 17), D0 24963): 26834
AUC insulin ([2]; FPG <100 mg/dL (n = 8), D0 22215): 27461
AUC insulin ([2]; FPG >100 mg/dL (n = 9), D0 27405): 26275
AUC insulin ([2]; High A1c (n = 9), D0 27055): 25988
AUC insulin ([2]; Low A1c (n = 8), D0 22609): 27785
Fasting insulin ([2]; All (n = 17), D0 26.082): 25.894 μU/mL
Fasting insulin ([2]; FPG <100 mg/dL (n = 8), D0 20.212): 20.95 μU/mL
Fasting insulin ([2]; FPG >100 mg/dL (n = 9), D0 31.3): 30.289 μU/mL
Fasting insulin ([2]; High A1c (n = 9), D0 30.411): 28.9 μU/mL
Fasting insulin ([2]; Low A1c (n = 8), D0 21.212): 22.512 μU/mL
decrease of fasting insulin ([2]; all 17 subjects, p=0.916, p=0.963): 0.7 μU/mL
decrease of median insulin area under the curve (AUC) ([2]; high A1c group, not statistically significant): 1663.5
decrease of fasting insulin ([2]; high A1c group, p=0.916, p=0.963): 0.84 μU/mL
decrease of fasting insulin ([2]; high fasting plasma glucose group, p=0.752, p=0.855): 2.97 μU/mL
increase of median insulin area under the curve (AUC) ([2]; low A1c group, not statistically significant): 3380.25
decrease of fasting insulin ([2]; remaining 16 subjects (subject #1 excluded), p=0.007, 0.009): 13.4%
average fasting insulin post-treatment ([2]; subject #1, outlier in the high A1c group, increased from 77.45 pre-treatment): 96.15 μU/mL
median decrease of fasting insulin ([2]; subset of 8 subjects (#2-4, 8-11, and 13)): 42.5%
decrease of mean fasting insulin ([2]; subset of 8 subjects (#2-4, 8-11, and 13), p=0.004, p=0.008): 37.8%
tolerability of daily oral DEA ([3]; 17 subjects, 21 daily oral doses of 1 mg/kg, 1 mg/kg): well tolerated by all study subjects
Hypoglycemia ([3]; 21-day study): Neither metformin nor DEA administration as presented herein induced hypoglycemia; also recorded: no effect
Side effects ([3]; 21-day study): mild transient diarrhea (1/17 subjects)
adverse effects ([3]; first week of treatment, no other adverse effects reported): only one subject experienced transient mild diarrhea
